According to US9139529B2, “Substituted quinoxalines as sodium channel modulators” (VERTEX PHARMACEUTICALS INCORPORATED, priority 2013, dated 2015):

molecular target: human Nav1.8 (Homo sapiens (Human), UniProt Q9Y5Y9); assay: E-VIPR optical membrane potential assay with electrical stimulation; type: cell-based; details: HEK cells expressing human Nav1.8
Description: Assays for Detecting and Measuring NaV Inhibition Properties of Compounds E-VIPR Optical Membrane Potential Assay Method with Electrical Stimulation
Sodium channels are voltage-dependent proteins that can be activated by inducing membrane voltage changes by applying electric fields. The electrical stimulation instrument and methods of use are described in Ion Channel Assay Methods PCT/US01/21652, herein incorporated by reference and are referred to as E-VIPR. The instrument comprises a microtiter plate handler, an optical system for exciting the coumarin dye while simultaneously recording the coumarin and oxonol emissions, a waveform generator, a current- or voltage-controlled amplifier, and a device for inserting electrodes in well. Under integrated computer control, this instrument passes user-programmed electrical stimulus protocols to cells within the wells of the microtiter plate.
24 hours before the assay on E-VIPR, HEK cells expressing human Nav1.8 were seeded in 384-well poly-lysine coated plates at 15,000-20,000 cells per well. HEK cells were grown in media (exact composition is specific to each cell type and NaV subtype) supplemented with 10% FBS (Fetal Bovine Serum, qualified; GibcoBRL #16140-071) and 1% Pen-Strep (Penicillin-Streptomycin; GibcoBRL #15140-122). Cells were grown in vented cap flasks, in 90% humidity and 5% CO2.
1) Pre-spotted compounds (in neat DMSO) into compound plates. Vehicle control (neat DMSO), the positive control (20 mM DMSO stock tetracaine, 125 μM final in assay) and test compounds were added to each well at 160× desired final concentration in neat DMSO. Final compound plate volume was 80 μL (80-fold intermediate dilution from 1 μL DMSO spot; 160-fold final dilution after transfer to cell plate). Final DMSO concentration for all wells in assay was 0.625%.
2) Prepared Hexyl Dye Solution.
3) Prepared cell plates. On the day of the assay, medium was aspirated and cells were washed three times with 100 μL of Bath1 Solution, maintaining 25 μL residual volume in each well.
4) Dispensed 25 μL per well of Hexyl Dye Solution into cell plates. Incubated for 20-35 minutes at room temp or ambient conditions.
5) Dispensed 80 μL per well of Bath1 into compound plates. Acid Yellow-17 (1 mM) was added and Potassium Chloride was altered from 4.5 to 20 mM depending on the NaV subtype and assay sensitivity.
6) Washed cell plates three times with 100 μL per well of Bath1, leaving 25 μL of residual volume. Then transferred 25 uL per well from Compound Plates to Cell Plates. Incubated for 20-35 minutes at room temp/ambient condition.
7) Read Plate on E-VIPR. Used the current-controlled amplifier to deliver stimulation wave pulses for 10 seconds and a scan rate of 200 Hz. A pre-stimulus recording was performed for 0.5 seconds to obtain the un-stimulated intensities baseline. The stimulatory waveform was followed by 0.5 seconds of post-stimulation recording to examine the relaxation to the resting state.
Data was analyzed and reported as normalized ratios of emission intensities measured in the 460 nm and 580 nm channels. The response as a function of time was reported as the ratios obtained using the following formula: […]
The data was further reduced by calculating the initial (Ri) and final (Rf) ratios. These were the average ratio values during part or all of the pre-stimulation period, and during sample points during the stimulation period. The response to the stimulus R=Rf/Ri was then calculated and reported as a function of time.
Control responses were obtained by performing assays in the presence of a compound with the desired properties (positive control), such as tetracaine, and in the absence of pharmacological agents (negative control). Responses to the negative (N) and positive (P) controls were calculated as above. The compound antagonist activity A is defined as:
[formula] where R is the ratio response of the test compound

Chain of human Nav1.8 (Q9Y5Y9 whole entry): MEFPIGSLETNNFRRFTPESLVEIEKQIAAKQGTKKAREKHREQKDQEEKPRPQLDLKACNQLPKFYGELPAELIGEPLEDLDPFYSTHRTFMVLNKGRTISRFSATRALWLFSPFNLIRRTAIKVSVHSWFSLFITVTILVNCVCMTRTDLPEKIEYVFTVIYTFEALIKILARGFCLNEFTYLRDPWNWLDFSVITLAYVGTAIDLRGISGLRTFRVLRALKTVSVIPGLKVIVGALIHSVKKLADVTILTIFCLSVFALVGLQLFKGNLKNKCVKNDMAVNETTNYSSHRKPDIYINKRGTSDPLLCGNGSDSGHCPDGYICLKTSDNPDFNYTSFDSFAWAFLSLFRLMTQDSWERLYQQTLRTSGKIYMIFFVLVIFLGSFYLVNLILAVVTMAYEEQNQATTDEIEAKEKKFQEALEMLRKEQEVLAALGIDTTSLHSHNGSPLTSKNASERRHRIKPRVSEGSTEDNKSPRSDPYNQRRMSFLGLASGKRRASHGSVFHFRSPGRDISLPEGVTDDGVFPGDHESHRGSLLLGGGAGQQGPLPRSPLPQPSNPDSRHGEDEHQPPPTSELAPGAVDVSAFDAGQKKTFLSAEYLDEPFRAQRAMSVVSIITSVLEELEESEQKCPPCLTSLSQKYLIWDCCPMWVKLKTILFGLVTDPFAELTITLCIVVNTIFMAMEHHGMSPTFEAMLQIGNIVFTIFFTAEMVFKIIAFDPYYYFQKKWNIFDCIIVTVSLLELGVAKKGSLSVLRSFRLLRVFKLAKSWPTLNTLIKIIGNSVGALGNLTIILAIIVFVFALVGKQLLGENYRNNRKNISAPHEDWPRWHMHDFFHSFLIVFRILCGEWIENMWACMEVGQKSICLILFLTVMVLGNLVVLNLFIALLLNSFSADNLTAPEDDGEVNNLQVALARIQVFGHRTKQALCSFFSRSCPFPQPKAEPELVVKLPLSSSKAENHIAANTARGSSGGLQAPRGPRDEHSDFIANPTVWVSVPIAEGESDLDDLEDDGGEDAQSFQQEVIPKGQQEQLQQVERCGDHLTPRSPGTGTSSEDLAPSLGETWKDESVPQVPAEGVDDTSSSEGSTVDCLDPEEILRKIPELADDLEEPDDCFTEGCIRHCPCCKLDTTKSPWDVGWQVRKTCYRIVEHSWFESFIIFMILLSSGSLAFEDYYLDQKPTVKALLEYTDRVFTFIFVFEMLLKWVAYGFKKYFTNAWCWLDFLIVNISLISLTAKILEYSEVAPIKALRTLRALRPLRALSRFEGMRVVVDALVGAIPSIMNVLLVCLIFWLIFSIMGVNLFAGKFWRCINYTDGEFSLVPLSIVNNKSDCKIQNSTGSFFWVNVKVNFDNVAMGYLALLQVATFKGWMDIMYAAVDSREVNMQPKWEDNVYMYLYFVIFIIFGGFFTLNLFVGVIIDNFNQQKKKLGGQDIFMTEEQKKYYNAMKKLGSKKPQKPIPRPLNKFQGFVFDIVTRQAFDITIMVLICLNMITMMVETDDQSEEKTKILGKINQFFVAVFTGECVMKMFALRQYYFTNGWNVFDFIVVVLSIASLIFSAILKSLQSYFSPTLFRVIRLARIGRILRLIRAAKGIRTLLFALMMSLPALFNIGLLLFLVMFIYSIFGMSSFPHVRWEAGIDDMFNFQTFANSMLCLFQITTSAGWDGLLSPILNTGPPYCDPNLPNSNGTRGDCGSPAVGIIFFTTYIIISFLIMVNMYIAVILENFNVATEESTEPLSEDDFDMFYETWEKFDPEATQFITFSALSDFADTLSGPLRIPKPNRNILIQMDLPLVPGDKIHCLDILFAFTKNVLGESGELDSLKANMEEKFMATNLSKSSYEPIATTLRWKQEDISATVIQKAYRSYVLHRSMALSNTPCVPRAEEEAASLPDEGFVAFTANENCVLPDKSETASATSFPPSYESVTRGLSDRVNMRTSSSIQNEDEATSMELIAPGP

| Compound | IC50 [µM] |
| --- | --- |
| COc1cc(F)ccc1Oc1nc2ccccc2nc1C(=O)Nc1ccc(C#N)cc1 [Compound 55, N-(4-cyanophenyl)-3-(4-fluoro-2-methoxyphenoxy)quinoxaline-2-carboxamide] | 0.046 |
| COc1cc(F)ccc1Oc1nc2ccccc2nc1C(=O)Nc1cc(C#N)ccn1 [Compound 50, N-(4-cyanopyridin-2-yl)-3-(4-fluoro-2-methoxyphenoxy)quinoxaline-2-carboxamide] | 1.25 |
| O=C(O)c1ccc(NC(=O)c2nc3ccccc3nc2Oc2ccc(F)cc2Cl)cn1 [Compound 28, 5-(3-(2-chloro-4-fluorophenoxy)quinoxaline-2-carboxamido)picolinic acid] | 0.051 |
| COc1ccc(Oc2nc3ccccc3nc2C(=O)Nc2ccc(C(=O)O)nc2)c(F)c1 [Compound 21, 5-(3-(2-fluoro-4-methoxyphenoxy)quinoxaline-2-carboxamido)picolinic acid] | 0.235 |
| NS(=O)(=O)c1cccc(NC(=O)c2nc3ccccc3nc2Oc2ccc(OCC(F)(F)F)cc2)c1 [Compound 15, N-(3-sulfamoylphenyl)-3-(4-(2,2,2-trifluoroethoxy)phenoxy)quinoxaline-2-carboxamide] | 0.066 |
| COc1cc(F)ccc1Oc1nc2ccccc2nc1C(=O)Nc1ccc2[nH]c(CO)nc2c1 [Compound 44, 3-(4-fluoro-2-methoxyphenoxy)-N-(2-(hydroxymethyl)-1H-benzo[d]imidazol-5-yl)quinoxaline-2-carboxamide] | 0.425 |
| O=C(O)c1ccc(NC(=O)c2nc3ccccc3nc2Oc2ccccc2OC(F)F)cn1 [Compound 24, 5-(3-(2-(difluoromethoxy)phenoxy)quinoxaline-2-carboxamido)picolinic acid] | 0.34 |
| COc1cc(F)ccc1Oc1nc2ccccc2nc1C(=O)Nc1cccc(-c2nnn[nH]2)c1 [Compound 45, N-(3-(1H-tetrazol-5-yl)phenyl)-3-(4-fluoro-2-methoxyphenoxy)quinoxaline-2-carboxamide] | 1.65 |
| NS(=O)(=O)c1cccc(NC(=O)c2nc3ccccc3nc2Oc2ccccc2OC(F)F)c1 [Compound 10, 3-(2-(difluoromethoxy)phenoxy)-N-(3-sulfamoylphenyl)quinoxaline-2-carboxamide] | 0.036 |
| O=C(O)c1ccc(NC(=O)c2nc3ccccc3nc2Oc2ccc(OCC(F)(F)F)cc2)cn1 [Compound 22, 5-(3-(4-(2,2,2-trifluoroethoxy)phenoxy)quinoxaline-2-carboxamido)picolinic acid] | 0.18 |
| COc1cc(F)ccc1Oc1nc2ccccc2nc1C(=O)Nc1nc(C(=O)O)co1 [Compound 39, 2-(3-(4-fluoro-2-methoxyphenoxy)quinoxaline-2-carboxamido)oxazole-4-carboxylic acid] | 2.6 |
| COc1cc(F)ccc1Oc1nc2ccccc2nc1C(=O)Nc1nc[nH]n1 [Compound 38, 3-(4-fluoro-2-methoxyphenoxy)-N-(1H-1,2,4-triazol-3-yl)quinoxaline-2-carboxamide] | 1.22 |
| COc1cc(F)ccc1Oc1nc2ccccc2nc1C(=O)Nc1ccc2[nH]ncc2c1 [Compound 48, 3-(4-fluoro-2-methoxyphenoxy)-N-(1H-indazol-5-yl)quinoxaline-2-carboxamide] | 0.086 |
| COc1cc(F)ccc1Oc1nc2ccccc2nc1C(=O)Nc1ccc(C(N)=O)cc1 [Compound 58, N-(4-carbamoylphenyl)-3-(4-fluoro-2-methoxyphenoxy)quinoxaline-2-carboxamide] | 0.031 |
| COc1cc(F)ccc1Oc1nc2ccccc2nc1C(=O)Nc1cccc(C#N)c1 [Compound 56, N-(3-cyanophenyl)-3-(4-fluoro-2-methoxyphenoxy)quinoxaline-2-carboxamide] | 0.03 |
| Cc1cc(Cl)ccc1Oc1nc2ccccc2nc1C(=O)Nc1ccc(C(=O)O)nc1 [Compound 25, 5-(3-(4-chloro-2-methylphenoxy)quinoxaline-2-carboxamido)picolinic acid] | 0.056 |
| O=C(Nc1cc[nH]c(=O)c1)c1nc2ccccc2nc1Oc1ccc(F)cc1 [Compound 35, 3-(4-fluorophenoxy)-N-(2-oxo-1,2-dihydropyridin-4-yl)quinoxaline-2-carboxamide] | 0.074 |
| COc1ccc(Oc2nc3ccccc3cc2C(=O)Nc2cccc(S(N)(=O)=O)c2)c(F)c1 [Compound 70, 2-(2-fluoro-4-methoxyphenoxy)-N-(3-sulfamoylphenyl)quinoline-3-carboxamide] | 0.034 |
| O=C(O)c1ccc(NC(=O)c2nc3ccccc3nc2Oc2ccc(OC(F)(F)F)cc2)cc1 [Compound 17, 4-(3-(4-(trifluoromethoxy)phenoxy)quinoxaline-2-carboxamido)benzoic acid] | 0.044 |
| COc1ccc(Oc2nc3ccccc3cc2C(=O)Nc2cccc(S(N)(=O)=O)c2)c(OC)c1 [Compound 72, 2-(2,4-dimethoxyphenoxy)-N-(3-sulfamoylphenyl)quinoline-3-carboxamide] | 0.026 |
| COc1cc(Cl)ccc1Oc1nc2ccccc2cc1C(=O)Nc1cccc(S(N)(=O)=O)c1 [Compound 73, 2-(4-chloro-2-methoxyphenoxy)-N-(3-sulfamoylphenyl)quinoline-3-carboxamide] | 0.031 |
| COc1cc(F)ccc1Oc1nc2ccccc2nc1C(=O)Nc1ccncc1 [Compound 53, 3-(4-fluoro-2-methoxyphenoxy)-N-(pyridin-4-yl)quinoxaline-2-carboxamide] | 0.022 |

Stronger by IC50, values ahead:

| IC50 [µM] | Compound |
| --- | --- |
| 0.006 | COc1cc(F)ccc1Oc1nc2ccccc2nc1C(=O)Nc1cccc(S(N)(=O)=O)c1 [Compound 2, 3-(4-fluoro-2-methoxyphenoxy)-N-(3-sulfamoylphenyl)quinoxaline-2-carboxamide] |
| 0.013 | NS(=O)(=O)c1cccc(NC(=O)c2nc3ccccc3nc2Oc2ccc(F)cc2F)c1 [Compound 5, 3-(2,4-difluorophenoxy)-N-(3-sulfamoylphenyl)quinoxaline-2-carboxamide] |
| 0.006 | COc1ccc(Oc2nc3ccccc3nc2C(=O)Nc2cccc(S(N)(=O)=O)c2)c(OC)c1 [Compound 8, 3-(2,4-dimethoxyphenoxy)-N-(3-sulfamoylphenyl)quinoxaline-2-carboxamide] |
| 0.003 | NS(=O)(=O)c1cccc(NC(=O)c2nc3ccccc3nc2Oc2ccc(F)cc2Cl)c1 [Compound 6, 3-(2-chloro-4-fluorophenoxy)-N-(3-sulfamoylphenyl)quinoxaline-2-carboxamide] |
| 0.014 | NS(=O)(=O)c1cccc(NC(=O)c2nc3ccccc3nc2Oc2ccc(OC(F)(F)F)cc2)c1 [Compound 3, N-(3-sulfamoylphenyl)-3-(4-(trifluoromethoxy)phenoxy)quinoxaline-2-carboxamide] |
| 0.019 | COc1cc(Cl)ccc1Oc1nc2ccccc2nc1C(=O)Nc1ccc(C(=O)O)nc1 [Compound 23, 5-(3-(4-chloro-2-methoxyphenoxy)quinoxaline-2-carboxamido)picolinic acid] |
| 0.017 | NS(=O)(=O)c1cccc(NC(=O)c2cc3ccccc3nc2Oc2ccc(F)cc2)c1 [Compound 60, 2-(4-fluorophenoxy)-N-(3-sulfamoylphenyl)quinoline-3-carboxamide] |
| 0.008 | Cc1cc(F)ccc1Oc1nc2ccccc2cc1C(=O)Nc1cccc(S(N)(=O)=O)c1 [Compound 63, 2-(4-fluoro-2-methylphenoxy)-N-(3-sulfamoylphenyl)quinoline-3-carboxamide] |
| 0.011 | NS(=O)(=O)c1cccc(NC(=O)c2cc3ccccc3nc2Oc2ccc(F)cc2F)c1 [Compound 65, 2-(2,4-difluorophenoxy)-N-(3-sulfamoylphenyl)quinoline-3-carboxamide] |
| 0.013 | NS(=O)(=O)c1cccc(NC(=O)c2cc3ccccc3nc2Oc2ccc(OC(F)(F)F)cc2)c1 [Compound 68, N-(3-sulfamoylphenyl)-2-(4-(trifluoromethoxy)phenoxy)quinoline-3-carboxamide] |
